One assay concerns immortalized melanocytes. The note with it: cannot calculate = toxic even at lower concentration and no dose–activity curve occurred.
The target of a further assay is rat nNOS (Rattus norvegicus, UniProt P29476).
For the next assay, the system named is Sk-Mel28 cells. The note with it: read-out: EC50 in Sk-Mel28 cells; cited from earlier work.
Assay [1] concerns metastatic melanoma A375 cell line. The note with it: read-out: EC50 in A375 cells; cited from earlier work.

Sequence of rat nNOS (P29476 whole entry): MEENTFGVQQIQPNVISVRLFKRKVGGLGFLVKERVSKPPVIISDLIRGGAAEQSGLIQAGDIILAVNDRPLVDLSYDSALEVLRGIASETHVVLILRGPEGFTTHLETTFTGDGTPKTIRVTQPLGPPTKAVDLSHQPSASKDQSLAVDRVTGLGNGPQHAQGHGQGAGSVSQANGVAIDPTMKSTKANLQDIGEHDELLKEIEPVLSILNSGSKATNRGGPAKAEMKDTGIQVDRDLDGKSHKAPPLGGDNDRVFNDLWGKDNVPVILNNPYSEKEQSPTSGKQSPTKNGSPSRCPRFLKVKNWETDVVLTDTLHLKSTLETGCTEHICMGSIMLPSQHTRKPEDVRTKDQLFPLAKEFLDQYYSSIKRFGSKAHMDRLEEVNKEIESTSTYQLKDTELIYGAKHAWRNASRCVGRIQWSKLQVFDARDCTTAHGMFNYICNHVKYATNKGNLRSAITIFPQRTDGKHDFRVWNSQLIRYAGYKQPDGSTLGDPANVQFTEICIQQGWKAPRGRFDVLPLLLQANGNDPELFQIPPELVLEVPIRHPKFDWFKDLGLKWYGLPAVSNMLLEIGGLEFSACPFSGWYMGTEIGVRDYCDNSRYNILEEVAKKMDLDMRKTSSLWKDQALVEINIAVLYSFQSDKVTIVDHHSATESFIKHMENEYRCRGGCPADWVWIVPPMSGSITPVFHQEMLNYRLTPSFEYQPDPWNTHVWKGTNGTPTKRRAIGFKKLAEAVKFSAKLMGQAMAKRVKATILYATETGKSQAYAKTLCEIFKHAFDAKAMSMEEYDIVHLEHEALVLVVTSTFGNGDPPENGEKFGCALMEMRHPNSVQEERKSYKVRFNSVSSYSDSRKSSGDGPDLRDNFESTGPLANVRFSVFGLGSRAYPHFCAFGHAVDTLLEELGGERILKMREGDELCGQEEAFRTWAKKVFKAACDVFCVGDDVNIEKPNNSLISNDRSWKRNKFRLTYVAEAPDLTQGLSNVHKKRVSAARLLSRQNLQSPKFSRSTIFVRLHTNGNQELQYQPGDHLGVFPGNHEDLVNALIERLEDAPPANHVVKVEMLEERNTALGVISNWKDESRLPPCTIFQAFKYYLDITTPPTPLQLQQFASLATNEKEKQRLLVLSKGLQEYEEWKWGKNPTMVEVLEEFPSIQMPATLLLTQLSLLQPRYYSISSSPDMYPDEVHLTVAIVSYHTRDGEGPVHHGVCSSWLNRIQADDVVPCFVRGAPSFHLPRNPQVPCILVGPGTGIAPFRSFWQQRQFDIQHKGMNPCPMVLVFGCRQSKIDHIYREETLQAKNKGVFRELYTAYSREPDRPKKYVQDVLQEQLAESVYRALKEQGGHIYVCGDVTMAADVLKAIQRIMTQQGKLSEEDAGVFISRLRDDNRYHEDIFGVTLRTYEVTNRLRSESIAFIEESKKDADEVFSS

Consider `N=C(Nc1cccc(CCNCc2cccc(NC(=N)c3cccs3)c2)c1)c1cccs1` [compound 13, N-(3-(2-((3-(Thiophene-2-carboximidamido)benzyl)amino)ethyl)phenyl)thiophene-2-carboximidamide], for which the EC50 immortalized melanocytes entry with immortalized melanocytes is recorded as “cannot calculate ^b”. `CCN(CCc1cccc(F)c1)Cc1cccc(NC(=N)c2cccs2)c1` [compound 17, N-(3-((Ethyl(3-fluorophenethyl)amino)methyl)phenyl)thiophene-2-carboximidamide]: the “lower nNOS potency than 16” value on rat nNOS is reported as approximately 7 fold.

For the compound `N.N.[Cl][Pt][Cl]` [cisplatin], the EC50 with Sk-Mel28 cells is 14.3 µM; in assay [1] it was 4.2 µM. On to `N=C(Nc1cccc(OCCCOc2cccc(NC(=N)c3cccs3)c2)c1)c1cccs1` [compound 12, N,N′-((Propane-1,3-diylbis(oxy))bis(3,1-phenylene))bis(thiophene-2-carboximidamide)], for which the “lower nNOS potency than 11” value on rat nNOS was 2 fold.

Usually EC50 stands for the concentration needed to bring the measured effect to its halfway point.

(Values after paper PMC3983353 (Journal of Medicinal Chemistry, 2014).)
